Source: patent US9272047B2, “Use of biological surfactant as anti-inflammatory agent and tissue preservative solution” (Shaperon Inc., priority 2007, dated 2016)

What was measured:
NF-κB = experiment: Inhibition of E. coli LPS-stimulated NF-κB activation (CD25 expression) in 3FP CHO cells; assay type: cell-based, Chinese hamster; conditions: live 7AAD(−) LPS-stimulated 3FP cells
Method: In order to evaluate the inhibition efficacy for the activation of E. coli LPS-stimulated NF-κB in a CHO cell, % expression of CD 25 in the CHO cell was evaluated as the following method, and FACS analysis after staining with 7-AAD was carried out to evaluate the cytotoxicity. Bile salts were classified into 3 groups based on their solubility in different solvents, as follows:
The CHO cells expressing CD25 under the regulation of a nuclear factor (NF-κB) promoter, shown FIG. 2A, were used for this experiment. Toll-like receptor 2 (TLR2) and CD14 gene-transformed CHO cells (hereinafter referred to as “3FP cells”) were also used.
The next day, the cultured cells were treated with bile acid derivatives and LPS, and were incubated in a CO2 incubator for 15 hr at 37° C.
After stimulating the above incubated cells for 15 hr, the culture solution was centrifuged (1200 rpm, 5 min, 4° C.) to remove the culture supernatant. The precipitate was washed twice with 200 μl of FACS buffer (1×PBS containing 1% BSA and 1 mM EDTA). 20 μl of blocking solution (PBS containing 1:10 of normal mouse serum and 1:3 of anti-human CD14/CD32 (BD, 2.4G2) was added to each well and reacted on an ice for 30 min. A mixture solution of anti-human CD25-PE (1:16) and anti-human CD14-FITC (1:32) was added to the well and then reacted on the ice for 30 min. The reaction mixture was washed twice with 200 μl of FACS buffer, and then 200 μl of 7-AAD (1:20) was added to the reaction mixture. After the reaction mixture was reacted on the ice for 10 min, CD25 expression efficacy and cytotoxicity were analyzed by using a flow cytometer.
In order to analyze living cells, 7-AAD(−) cells were selected and an activation of nuclear transcription factor was confirmed by the increase of CD25 expression.

dendritic cells [1] = experiment: Inhibition of E. coli LPS-induced activation of dendritic cells (CD40, CD80, CD86, I-Ab expression); assay type: cell-based, mouse; conditions: 100 ng/ml E. coli LPS; CD11c(+)/7AAD(−) dendritic cells
Method: In order to assay the effect of sodium glycocholate on the activation procedure of antigen presenting cells, which is induced by E. coli LPS, cells were separated from the bone marrow of recombination activating gene 2 (Rag2) deficient mouse. The separated cells were plated at 2×10^5 cells/well in a 96-well plate and then treated with 1.5 ng/ml of granulocyt-macrophage colony-stimulating factor (GM-CSF) and 0.75 ng/ml of interleukin-4 followed by the differentiation of the cells into dentritic cells through 6-day incubation.
The dendritic cells were well mixed with sodium glycocholate and LPS. The mixtures were stimulated for 18 hours at 37° C., and stained with anti-CD40-FITC, anti-CD80-FITC, anti-I-Ab-PE, anti-CD86-PE, 7AAD and anti-CD11c-APC, then the cells were assayed via a flow cytometer. Each group was treated and assayed at least twice, and the results were statistically analyzed through t-test. The results were p<0.05 compared with the experimental groups treated by only LPS.
As shown FIGS. 9A-9B to 11A-11B, in order to assay only living dedritic cells, CD11c(+)/7AAD(−) cells were selected and then the expressions of dendritic cell costimulatory molecules and I-Ab were assayed.

macrophages = experiment: Inhibition of LPS-induced nitric oxide generation, macrophages (Griess); assay type: cell-based, mouse; conditions: macrophages stimulated by LPS, 18 hours
Method: (§1) Then, the resulting dendritic cell mixtures were plated, by […] each, in a 96-well plate. Griss reagents were added to each well, and the 96-well plate was covered with foils and kept reacting for 15 min at room temperature. Absorbance at 540 nm was measured using an ELISA reader. Macrophages separated from abdomen were also treated with sodium glycocholate, sodium taurochenodeoxycholate and sodium taurodeoxycholate, respectively, and then stimulated with LPS for 18 hours. Thereafter, the same experiments as the dentritic cells were performed to the macrophages.

dendritic cells [2] = experiment: Inhibition of LPS-induced nitric oxide generation, dendritic cells (Griess); assay type: cell-based, mouse; conditions: dendritic cells stimulated by LPS, 18 hours
Method: as §1

| Molecule | inhibition effect for LPS-stimulated CD25 expression (NF-κB activation) (NF-κB) | increased expression of CD40, CD80, CD86 and I-Ab (dendritic cells [1]) | generation of NO (macrophages) | generation of NO (dendritic cells [2]) |
| --- | --- | --- | --- | --- |
| C[C@H](CCC(=O)O)[C@H]1CC[C@H]2[C@@H]3[C@H](O)C[C@@H]4C[C@H](O)CC[C@]4(C)[C@H]3CC[C@]12C [chenodeoxycholic acid] | showed inhibition effects |  |  |  |
| C[C@H](CCC(=O)O)[C@H]1CC[C@H]2[C@@H]3[C@H](O)C[C@@H]4C[C@H](O)CC[C@]4(C)[C@H]3C[C@H](O)[C@]12C [cholic acid] | showed inhibition effects |  |  |  |
| C[C@H](CCC(=O)O)[C@H]1CC[C@H]2[C@@H]3C(=O)C[C@@H]4CC(=O)CC[C@]4(C)[C@H]3CC(=O)[C@]12C [dehydrocholic acid] | showed inhibition effects |  |  |  |
| C[C@H](CCC(=O)NCC(=O)O)[C@H]1CC[C@H]2[C@@H]3[C@H](O)C[C@@H]4C[C@H](O)CC[C@]4(C)[C@H]3C[C@H](O)[C@]12C [glycocholic acid hydrate] | showed inhibition effects |  |  |  |
| C[C@H](CCC(=O)NCC(=O)[O-])[C@H]1CC[C@H]2[C@@H]3[C@H](O)C[C@@H]4C[C@H](O)CC[C@]4(C)[C@H]3CC[C@]12C.[Na+] [sodium glycochenodeoxycholate] | showed an inhibition effect |  |  |  |
| C[C@H](CCC(=O)NCCS(=O)(=O)O)[C@H]1CC[C@H]2C3[C@H](O)C[C@@H]4C[C@H](O)CC[C@]4(C)[C@H]3CC[C@]12C (stereo partly drawn) [sodium taurochenodeoxycholate] | showed an inhibition effect | inhibited depending on the concentration | inhibited | inhibited |
| C[C@H](CCC(=O)NCCS(=O)(=O)O)[C@H]1CC[C@H]2[C@@H]3[C@H](O)C[C@@H]4C[C@H](O)CC[C@]4(C)[C@H]3C[C@H](O)[C@]12C [sodium taurocholate hydrate] | showed an inhibition effect |  |  |  |
| C[C@H](CCC(=O)NCCS(=O)(=O)[O-])[C@H]1CC[C@H]2[C@@H]3CC[C@@H]4C[C@H](O)CC[C@]4(C)[C@H]3C[C@H](O)[C@]12C.[Na+] [sodium taurodeoxycholate hydrate] | showed an inhibition effect | inhibited depending on the concentration | inhibited | inhibited |
| sodium deoxycholate | showed an inhibition effect |  |  |  |
